# Laboratory results from patent US6299861A, “Ipratropium bromide enantiomer with prolonged duration of effect” (Boehringer Ingelheim KG, priority 1995, dated 2001).
# System: acetylcholine-induced bronchospasm
# Test: Inhibition of acetylcholine-induced bronchospasm in the anaesthetised dog after administration by inhalation
# Conditions: aerosol, FIG. 1; for peak inhibition of acetylcholine-induced bronchospasm: 5 μg L-(-)-enantiomer (curve B) or 10 μg racemate (curve A); for time at which peak inhibition of bronchospasm is reached / time until inhibition of bronchospasm has fallen back to initial/starting level: 5 μg L-(-)-enantiomer or 10 μg racemate
# Experimental: 5 μg of the pure L-(-)-enantiomer and, accordingly, 10 μg of the racemate were administered.
Structure (SMILES),peak inhibition of acetylcholine-induced bronchospasm,time at which peak inhibition of bronchospasm is reached,time until inhibition of bronchospasm has fallen back to initial/starting level
"CC(C)[N+]1(C)C2CCC1CC(OC(=O)C(CO)c1ccccc1)C2 (single isomer, unassigned) [BIIH 150 BR, (endo, syn)-(-)-3-(3-hydroxy-l-oxo-2-phenylpropoxy)-8-methyl-8-(1-methylethyl)-8-azoniabicyclo [3,2,1]octane]",60%,about 10 minutes,180 min
CC(C)[N+]1(C)C2CCC1CC(OC(=O)C(CO)c1ccccc1)C2 (stereo not drawn) [Ipratropium bromide],about 55%,about 10 minutes,60 min
